Data from patent publication US7858640B2, “Quinolines and their therapeutic use” (Pulmagen Therapeutics (Asthma) Limited, priority 2005, dated 2010).

biological target: T1, CRTH2 receptor (Homo sapiens, UniProt Q9Y5Y4); assay: Radioligand binding assay ([3H]-PGD2 displacement, SPA); set-up: expressed in transfected cells; host or cells: HEK cell membranes; details: HEK cell membranes expressing the CRTH2 receptor, 1 nM [3H]-PGD2; Ki from IC50 by Cheng-Prusoff
T1 sequence (Q9Y5Y4 1-395): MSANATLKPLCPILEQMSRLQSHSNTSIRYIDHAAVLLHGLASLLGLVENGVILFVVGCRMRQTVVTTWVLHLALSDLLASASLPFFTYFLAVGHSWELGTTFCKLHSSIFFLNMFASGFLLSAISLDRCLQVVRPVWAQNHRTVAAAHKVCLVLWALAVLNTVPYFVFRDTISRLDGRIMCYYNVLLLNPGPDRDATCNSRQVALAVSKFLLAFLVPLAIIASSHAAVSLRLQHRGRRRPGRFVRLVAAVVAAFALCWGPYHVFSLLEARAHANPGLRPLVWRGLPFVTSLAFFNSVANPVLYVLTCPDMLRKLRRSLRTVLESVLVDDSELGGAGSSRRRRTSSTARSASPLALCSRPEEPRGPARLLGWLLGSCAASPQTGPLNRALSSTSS
Procedure: Radioligand Binding Assay
The receptor binding assay is performed in a final volume of 200 μL binding buffer [10 mM BES (pH 7.4), 1 mM EDTA, 10 mM manganese chloride, 0.01% BSA] and 1 nM [^3H]-PGD2 (Amersham Biosciences UK Ltd). Ligands are added in assay buffer containing a constant amount of DMSO (1% by volume). Total binding is determined using 1% by volume of DMSO in assay buffer and non-specific binding is determined using 10 μM of unlabeled PGD2 (Sigma). Human embryonic kidney (HEK) cell membranes (3.5 μg) expressing the CRTH2 receptor are incubated with 1.5 mg wheatgerm agglutinin SPA beads and 1 nM [^3H]-PGD2 (Amersham Biosciences UK Ltd) and the mixture incubated for 3 hours at room temperature. Bound [^3H]-PGD2 is detected using a Microbeta TRILUX liquid scintillation counter (Perkin Elmer). Compound IC50 value is determined using a 6-point dose response curve in duplicate with a semi-log compound dilution series. IC50 calculations are performed using Excel and XLfit (Microsoft), and this value is used to determine a Ki value for the test compound using the Cheng-Prusoff equation.

Question: Which Ki does the source give for COc1c(Cc2ccc(Cl)cc2)c(C)nc2c(Cl)ccc(OCC(=O)O)c12 [Example 1, [8-chloro-3-(4-chlorobenzyl)-4-methoxy-2-methylquinolin-5-yloxy]acetic Acid] here?
Answer: The Ki was < 100 nM.

Question: Which Ki does the source give for Cc1nc2c(Cl)ccc(OCC(=O)O)c2c(C)c1Cc1ccc(Cl)cc1 [Example 2, [8-chloro-3-(4-chlorobenzyl)-2,4-dimethylquinolin-5-yloxy]acetic Acid] here?
Answer: Its Ki is < 100 nM.

Question: How did the Ki turn out when CCOc1nc2cc(C)cc(CC(=O)O)c2c(C)c1Cc1ccc(Cl)cc1 [Example 3, [3-(4-chlorobenzyl)-2-ethoxy-4,7-dimethylquinolin-5-yl]acetic Acid] was run?
Answer: The Ki was < 100 nM.

Question: Cc1cc(OCC(=O)O)c2c(C)c(Cc3ccc(Cl)cc3)c(C)nc2c1 [Example 4, [3-(4-chlorobenzyl)-2,4,7-trimethylquinolin-5-yloxy]acetic Acid] was tested. Which Ki did it give?
Answer: The Ki was < 1000 nM.

Question: How did the Ki turn out when Cc1cc(CC(=O)O)c2c(C)c(Cc3ccc(Cl)cc3)c(C)nc2c1 [Example 5, [3-(4-chlorobenzyl)-2,4,7-trimethylquinolin-5-yl]acetic Acid] was run?
Answer: Its Ki is < 1000 nM.

Question: With Cc1nc2c(Cl)ccc(CC(=O)O)c2c(C)c1Cc1ccc(Cl)cc1 [Example 6, [8-chloro-3-(4-chlorobenzyl)-2,4-dimethylquinolin-5-yl]acetic Acid] as the compound, how does the Ki read?
Answer: Its Ki is < 100 nM.

Question: Which Ki does the source give for Cc1nc2c(Cl)ccc(OCC(=O)O)c2c(C)c1Oc1ccc(Cl)cc1 [Example 7, [8-chloro-3-(4-chlorophenoxy)-2,4-dimethylquinolin-5-yloxy]acetic Acid] here?
Answer: Its Ki is < 100 nM.

Question: Cc1nc2c(Cl)ccc(OCC(=O)O)c2c(C)c1Sc1ccc(Cl)cc1 [Example 8, [8-chloro-3-(4-chlorophenylsulfanyl)-2,4-dimethylquinolin-5-yloxy]acetic Acid] was tested. Which Ki did it give?
Answer: Its Ki is < 100 nM.

Question: For Cc1nc2c(Cl)ccc(OCC(=O)O)c2c(OC(F)F)c1Cc1ccc(Cl)cc1 [Example 9, [8-chloro-3-(4-chlorobenzyl)-4-difluoromethoxy-2-methylquinolin-5-yloxy]acetic Acid], which Ki is on record?
Answer: The Ki was < 100 nM.

Question: Cc1nc2c(Cl)ccc(OCC(=O)O)c2cc1Cc1ccc(Cl)cc1 [Example 10, [8-chloro-3-(4-chlorobenzyl)-2-methylquinolin-5-yloxy]acetic Acid] was tested. Which Ki did it give?
Answer: The Ki was < 1000 nM.

Question: Which Ki does the source give for Cc1nc2cc(Cl)cc(CC(=O)O)c2c(C)c1Cc1ccc(Cl)cc1 [Example 11, [7-chloro-3-(4-chlorobenzyl)-2,4-dimethylquinolin-5-yl]acetic acid] here?
Answer: The Ki was < 100 nM.

Question: Which Ki does the source give for Cc1nc2c(Cl)ccc(OCC(=O)NS(C)(=O)=O)c2c(C)c1Cc1ccc(Cl)cc1 [Example 13, N-{2-[8-chloro-3-(4-chlorobenzyl)-2,4-dimethylquinolin-5-yloxy]-acetyl}methanesulfonamide] here?
Answer: Its Ki is < 1000 nM.

Question: With Cc1nc2c(Cl)ccc(OCC(=O)NS(=O)(=O)c3ccccc3)c2c(C)c1Cc1ccc(Cl)cc1 [Example 14, N-{2-[8-chloro-3-(4-chlorobenzyl)-2,4-dimethylquinolin-5-yloxy]-acetyl}benzenesulfonamide] as the compound, how does the Ki read?
Answer: The Ki was < 10000 nM.

Question: Cc1nc2c(Cl)ccc(CC(=O)O)c2c(C)c1Oc1ccc(Cl)cc1 [Example 15, [8-chloro-3-(4-chlorophenoxy)-2,4-dimethylquinolin-5-yl]acetic Acid] was tested. Which Ki did it give?
Answer: Its Ki is < 100 nM.

Question: With CCc1c(Cc2ccc(Cl)cc2)c(C)nc2c(Cl)ccc(OCC(=O)O)c12 [Example 16, [8-chloro-3-(4-chlorobenzyl)-4-ethyl-2-methylquinolin-5-yloxy]acetic acid] as the compound, how does the Ki read?
Answer: Its Ki is < 100 nM.

Question: CCc1nc2c(Cl)ccc(OCC(=O)O)c2c(C)c1Cc1ccc(Cl)cc1 [Example 17, [8-chloro-3-(4-chlorobenzyl)-2-ethyl-4-methylquinolin-5-yloxy]acetic Acid] was tested. Which Ki did it give?
Answer: The Ki was < 100 nM.

Question: For Cc1c(Cc2ccc(F)cc2)c(OC(F)F)nc2c(Cl)ccc(OCC(=O)O)c12 [Example 19, [8-chloro-2-difluoromethoxy-3-(4-fluorobenzyl)-4-methylquinolin-5-yloxy]acetic acid], which Ki is on record?
Answer: Its Ki is < 100 nM.

Question: For Cc1nc2c(Cl)ccc(OCC(=O)O)c2c(C)c1S(=O)(=O)c1ccc(Cl)cc1 [Example 21, [8-chloro-3-(4-chlorobenzenesulfonyl)-2,4-dimethylquinolin-5-yloxy]acetic Acid], which Ki is on record?
Answer: The Ki was < 100 nM.

Question: Which Ki does the source give for Cc1nc2c(Cl)ccc(OCC(=O)O)c2c(C)c1[S+]([O-])c1ccc(Cl)cc1 (stereo not shown) [Example 22, [8-chloro-3-(4-chlorobenzenesulfinyl)-2,4-dimethylquinolin-5-yloxy]acetic Acid] here?
Answer: Its Ki is < 100 nM.

Question: Which Ki does the source give for Cc1nc2c(Cl)ccc(OCc3nnn[nH]3)c2c(C)c1Cc1ccc(Cl)cc1 [Example 23, 8-chloro-3-(4-chlorobenzyl)-2,4-dimethyl-5-(1H-tetrazol-5-ylmethoxy)quinoline] here?
Answer: Its Ki is < 10000 nM.

Question: Which Ki does the source give for Cc1nc2c(Cl)ccc(OCC(=O)O)c2c(OC(F)F)c1Sc1ccc(Cl)cc1 [Example 24, [8-chloro-3-(4-chlorophenylsulfanyl)-4-difluoromethoxy-2-methyl-quinolin-5-yloxy]acetic Acid] here?
Answer: The Ki was < 100 nM.

Question: Which Ki does the source give for Cc1nc2c(Cl)ccc(CC(=O)O)c2c(OC(F)F)c1Cc1ccc(Cl)cc1 [Example 25, [8-chloro-3-(4-chlorobenzyl)-4-difluoromethoxy-2-methylquinolin-5-yl]acetic acid] here?
Answer: Its Ki is < 1000 nM.

Question: With Cc1nc2c(Cl)ccc(OCC(=O)O)c2c(OC(F)F)c1Cc1ccc(S(C)(=O)=O)cc1 [Example 26, [8-chloro-4-difluoromethoxy-3-(4-methanesulfonylbenzyl)-2-methylquinolin-5-yloxy]acetic acid] as the compound, how does the Ki read?
Answer: The Ki was < 100 nM.

Question: How did the Ki turn out when Cc1nc2c(F)ccc(OCC(=O)O)c2c(OC(F)F)c1Cc1ccc(Cl)cc1 [Example 27, [3-(4-chlorobenzyl)-4-difluoromethoxy-8-fluoro-2-methylquinolin-5-yloxy]acetic acid] was run?
Answer: The Ki was < 100 nM.

Question: For Cc1nc2c(Cl)ccc(CC(=O)O)c2c(C)c1Cc1ccc(S(C)(=O)=O)cc1 [Example 28, [8-chloro-3-(4-methanesulfonylbenzyl)-2,4-dimethylquinolin-5-yl]acetic acid], which Ki is on record?
Answer: The Ki was < 1000 nM.

Question: Which Ki does the source give for CCc1nc2c(Cl)ccc(OCC(=O)O)c2c(OC(F)F)c1Cc1ccc(S(C)(=O)=O)cc1 [Example 29, [8-chloro-4-difluoromethoxy-2-ethyl-3-(4-methanesulfonylbenzyl)-quinolin-5-yloxy]acetic acid] here?
Answer: Its Ki is < 100 nM.

Question: For Cc1c(Cc2ccc(Cl)cc2)c(OC(F)F)nc2c(F)ccc(OCC(=O)O)c12 [Example 30, [3-(4-chlorobenzyl)-2-difluoromethoxy-8-fluoro-4-methylquinolin-5-yloxy]-acetic Acid], which Ki is on record?
Answer: The Ki was < 100 nM.

Question: With Cc1c(Cc2ccc(F)cc2)c(OC(C)C)nc2c(Cl)ccc(OCC(=O)O)c12 [Example 31, [8-chloro-3-(4-fluorobenzyl)-2-isopropoxy-4-methylquinolin-5-yloxy]acetic Acid] as the compound, how does the Ki read?
Answer: The Ki was < 1000 nM.

Question: For Cc1nc2c(Cl)ccc(OCC(=O)O)c2c(OC(C)C)c1Cc1ccc(F)cc1 [Example 32, [8-chloro-3-(4-fluorobenzyl)-4-isopropoxy-2-methylquinolin-5-yloxy]acetic Acid], which Ki is on record?
Answer: Its Ki is < 1000 nM.

Question: Which Ki does the source give for Cc1nc2c(Cl)ccc(OC(C)C(=O)O)c2c(C)c1Cc1ccc(Cl)cc1 (stereo not shown) [Example 33, 2-[8-chloro-3-(4-chlorobenzyl)-2,4-dimethylquinolin-5-yloxy]propionic Acid] here?
Answer: The Ki was < 100 nM.

Question: With Cc1c(Cc2ccc(S(C)(=O)=O)cc2)c(OC(F)F)nc2c(Cl)ccc(OCC(=O)O)c12 [Example 34, [8-chloro-2-difluoromethoxy-3-(4-methanesulfonylbenzyl)-4-methylquinolin-5-yloxy]acetic Acid] as the compound, how does the Ki read?
Answer: Its Ki is < 100 nM.
